# Data as given in patent publication US10370387B2, “Tricyclic fused thiophene derivatives as JAK inhibitors” (Incyte Corporation, priority 2012, dated 2019).
# System: human JAK1
# Test: In vitro JAK kinase assay (HTRF, phosphorylation of biotinylated peptide), JAK1
# Assay type: biochemical
# Settings: ratio of JAK2 IC50 to JAK1 IC50, 1 mM ATP
# Method: Compounds herein were tested for inhibitory activity of JAK targets according to the following in vitro assay described in Park et al., Analytical Biochemistry 1999, 269, 94-104. The catalytic domains of human JAK1 (a.a. 837-1142), JAK2 (a.a. 828-1132) and JAK3 (a.a. 781-1124) were expressed using baculovirus in insect cells and purified. The catalytic activity of JAK1, JAK2 or JAK3 was assayed by measuring the phosphorylation of a biotinylated peptide. The phosphorylated peptide was detected by homogenous time resolved fluorescence (HTRF). IC50s of compounds were measured for each kinase in the 40 μL reactions that contain the enzyme, ATP and 500 nM peptide in 50 mM Tris (pH 7.8) buffer with 100 mM NaCl, 5 mM DTT, and 0.1 mg/mL (0.01%) BSA. For the 1 mM IC50 measurements, ATP concentration in the reactions was 1 mM. Reactions were carried out at room temperature for 1 hour and then stopped with 20 μL 45 mM EDTA, 300 nM SA-APC, 6 nM Eu-Py20 in assay buffer (Perkin Elmer, Boston, Mass.). Binding to the Europium labeled antibody took place for 40 minutes and HTRF signal was measured on a PHERA star plate reader (BMG, Cary, N.C.). The Example compounds were each tested in the Example A assay (see Table 1 for data for the compounds of the examples as tested by the assay of Example A at 1 mM ATP).
row,SMILES,JAK2/JAK1
1,"CN1CC(c2nc3cnc4ccsc4c3n2[C@H]2CC[C@H](CC#N)CC2)C1 [Example 29, {trans-4-[2-(1-Methylazetidin-3-yl)-1H-imidazo[4,5-d]thieno[3,2-b]pyridin-1-yl]cyclohexyl}acetonitrile]",>9
2,"N#CC[C@H]1CC[C@H](n2c(C3CNC3)nc3cnc4ccsc4c32)CC1 [Example 28, [trans-4-(2-Azetidin-3-yl-1H-imidazo[4,5-d]thieno[3,2-b]pyridin-1-yl)cyclohexyl]acetonitrile]",>7
3,"Cc1nc2cnc3ccsc3c2n1[C@H]1CC[C@H](CC#N)OC1 [Example 38, [(2R,5S)-5-(2-Methyl-1H-imidazo[4,5-d]thieno[3,2-b]pyridin-1-yl)tetrahydro-2H-pyran-2-yl]acetonitrile]",>10
4,"C[C@@H](O)c1nc2cnc3ccsc3c2n1C1CCCC(CCC#N)C1 (stereo partly drawn) [Example 32, 3-(3-{2-[(1R)-1-Hydroxyethyl]-1H-imidazo[4,5-d]thieno[3,2-b]pyridin-1-yl}cyclohexyl)propanenitrile]",>10
5,"N#CC[C@H]1CC[C@H](n2/c(=N/C#N)[nH]c3cnc4ccsc4c32)CC1.O=C(O)C(F)(F)F [Example 25, {(2E)-1-[trans-4-(Cyanomethyl)cyclohexyl]-1,3-dihydro-2H-imidazo[4,5-d]thieno[3,2-b]pyridin-2-ylidene}cyanamide trifluoroacetate]",>6
6,"C[C@@H](O)c1nc2cnc3ccsc3c2n1C1CCNCC1F (stereo partly drawn) [9 (2nd peak), (1R)-1-[1-(3-Fluoropiperidin-4-yl)-1H-imidazo[4,5-d]thieno[3,2-b]pyridin-2-yl]ethanol]",>10
7,"CCNC(=O)C[C@H]1CC[C@H](n2c([C@@H](C)O)nc3cnc4ccsc4c32)CC1 [Example 31, N-Ethyl-2-(trans-4-{2-[(1R)-1-hydroxyethyl]-1H-imidazo[4,5-d]thieno[3,2-b]pyridin-1-yl}cyclohexyl)acetamide]",>10
8,"C[C@@H](O)c1nc2cnc3ccsc3c2n1[C@H]1CC[C@H](CNC(=O)OC2CCOC2)CC1 (stereo partly drawn) [Example 85, Tetrahydrofuran-3-yl [(trans-4-{2-[(1R)-1-hydroxyethyl]-1H-imidazo[4,5-d]thieno[3,2-b]pyridin-1-yl}cyclohexyl)methyl]carbamate]",>10
9,"C[C@@H](O)c1nc2cnc3ccsc3c2n1[C@H]1CC[C@H](CF)CC1 [Example 12, (1R)-1-{1-[trans-4-(Fluoromethyl)cyclohexyl]-1H-imidazo[4,5-d]thieno[3,2-b]pyridin-2-yl}ethanol]",>10
10,"C[C@@H](O)c1nc2cnc3ccsc3c2n1[C@H]1CCCN(C(=O)CCc2cn[nH]c2)C1 [Example 53, (1R)-1-(1-{(3S)-1-[3-(1H-Pyrazol-4-yl)propanoyl]piperidin-3-yl}-1H-imidazo[4,5-d]thieno[3,2-b]pyridin-2-yl)ethanol]",>10
11,"C[C@@H](O)c1nc2cnc3ccsc3c2n1[C@H]1CCCN(CCC#N)C1 [Example 56, 3-((3S)-3-{2-[(1R)-1-Hydroxyethyl]-1H-imidazo[4,5-d]thieno[3,2-b]pyridin-1-yl}piperidin-1-yl)propanenitrile]",>10
12,"N#CCc1nc2cnc3ccsc3c2n1[C@H]1CC[C@H](CC#N)OC1 [Example 73, {(2R,5S)-5-[2-(Cyanomethyl)-1H-imidazo[4,5-d]thieno[3,2-b]pyridin-1-yl]tetrahydro-2H-pyran-2-yl}acetonitrile]",>10
13,"N#CCC1CCC(CO)(n2cnc3cnc4ccsc4c32)CC1 (single isomer, unassigned) [72 (second peak), [4-(Hydroxymethyl)-4-(1H-imidazo[4,5-d]thieno[3,2-b]pyridin-1-yl)cyclohexyl]acetonitrile]",>5
